Laboratory results taken from ChEMBL document CHEMBL1133399, “2-(Alkylthio)pyrimidin-4-ones as novel, reversible inhibitors of lipoprotein-associated phospholipase A2” (Bioorg Med Chem Lett, 2000).
pIC50, pKi: −log10 of the molar value.

Legend:
[1] = molecular target: T1, Platelet-activating factor acetylhydrolase (Homo sapiens, UniProt Q13093); experiment: Inhibition of lipoprotein-associated phospholipase A2 (Lp-PLA2)
T1 sequence (Q13093 whole entry): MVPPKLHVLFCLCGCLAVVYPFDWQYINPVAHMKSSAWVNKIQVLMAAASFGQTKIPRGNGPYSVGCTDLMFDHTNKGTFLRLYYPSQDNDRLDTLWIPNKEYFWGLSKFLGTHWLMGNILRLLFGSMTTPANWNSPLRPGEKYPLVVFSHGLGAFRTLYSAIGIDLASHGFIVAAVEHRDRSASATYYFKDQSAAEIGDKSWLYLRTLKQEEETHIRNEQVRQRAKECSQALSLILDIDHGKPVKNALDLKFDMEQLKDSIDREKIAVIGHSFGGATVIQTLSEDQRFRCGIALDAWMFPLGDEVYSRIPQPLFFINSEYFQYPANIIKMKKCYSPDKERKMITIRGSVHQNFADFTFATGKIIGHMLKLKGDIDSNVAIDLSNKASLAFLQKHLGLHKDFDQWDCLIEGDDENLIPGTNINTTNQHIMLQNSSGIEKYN

[2] = molecular target: T2, Platelet-activating factor acetylhydrolase (Homo sapiens) (UniProt Q13093); experiment: The compound was tested for inhibition of Lipoprotein-associated phospholipase A2 (Lp-PLA2) at 30 uM
T2 sequence (whole entry): T1 sequence (Q13093 whole entry)

[3] = molecular target: T2, Platelet-activating factor acetylhydrolase (Homo sapiens); experiment: The compound was tested for inhibition of Lipoprotein-associated phospholipase A2 (Lp-PLA2) at 10 uM
[4] = molecular target: T1, Platelet-activating factor acetylhydrolase; experiment: The compound was tested for inhibition of Lipoprotein-associated phospholipase A2 (Lp-PLA2)

SMILES	pIC50 [1]	also measured
Cc1ccc(Cc2cnc(SCCCCCCCc3ccccc3)nc2O)cn1	6.00	–
Oc1nc(SCCCCCCCCCc2ccccc2)ncc1Cc1cccnc1	6.37	–
CC(=O)c1ccc(CCCCCCCCSc2ncc(Cc3cccnc3)c(O)n2)cc1	5.54	–
Cc1ccc(Cc2cnc(SCCCc3ccccc3)nc2O)cn1	–	inhibition [2]: 10%
Oc1nc(SCc2ccccc2)ncc1Cc1cncnc1	5.96	–
Oc1nc(SCCCCCCCCc2ccccc2)ncc1Cc1ccccc1	–	inhibition [3]: 0%
[O-][S+](CCCCCCCSc1ncc(Cc2cccnc2)c(O)n1)c1ccc(Cl)cc1 (configuration not stated)	4.77	–
Cc1ccc(Cc2cnc(OCCCCc3ccccc3)nc2O)cn1	4.92	–
Oc1nc(SCCCCCCCOc2ccc(Cl)cc2)ncc1Cc1cccnc1	6.64	–
O=c1[nH]c(SCCCCCCc2ccccc2)ncc1Cc1cccnc1	5.64	–
O=C(CCCCCCCSc1ncc(Cc2cccnc2)c(O)n1)c1cccs1	5.89	–
Oc1nc(SCCCCCCCCc2ccc(Cl)cc2)ncc1Cc1cccnc1	6.70	–
O=c1[nH]c(SCc2ccccc2)ncc1Cc1ccncc1	5.36	–
Cc1ccc(Cc2cnc(SCCCCCCCCCc3ccccc3)nc2O)cn1	6.00	–
O=C(CCCCCCCSc1ncc(Cc2cccnc2)c(O)n1)c1ccc(Cl)cc1	6.96	–
CCCCn1ccc(Cc2cnc(SCCCCCCCCc3ccccc3)nc2O)cc1=O	6.11	–
O=C(CCCCCCCCSc1ncc(Cc2cccnc2)c(=O)[nH]1)c1ccc(Cl)cc1	6.19	–
O=C(CCCCCCCSc1ncc(Cc2cncnc2)c(O)n1)c1ccc(Cl)cc1	7.27	–

SMILES	pIC50 [1]	also measured
Oc1nc(SCCCCCCCCc2ccccc2)ncc1Cc1ccoc1	–	inhibition [3]: 63%
O=S(=O)(CCCCCCCSc1ncc(Cc2cccnc2)c(O)n1)c1ccc(Cl)cc1	4.90	–
COc1cc(Cc2cnc(SCCCCCCCCc3ccccc3)nc2O)ccn1	6.00	–
O=c1[nH]c(SCc2ccccc2)ncc1Cc1cccnc1	5.96	–
O=C(CCCCCCCSc1ncc(Cc2cnccn2)c(=O)[nH]1)c1ccc(Cl)cc1	6.19	–
Oc1nc(SCc2ccc(F)cc2)ncc1Cc1cncnc1	6.07	–
Oc1nc(SCCCCCCCSc2ccc(Cl)cc2)ncc1Cc1cccnc1	6.60	–
COc1ccc(CCCCCCCCSc2ncc(Cc3ccc(C)nc3)c(O)n2)cc1	5.96	–
Cc1nc(SCCCCCCCC(=O)c2ccc(Cl)cc2)nc(O)c1Cc1cccnc1	–	inhibition [3]: 40%
O=c1[nH]c(SCc2ccc(Cl)cc2)ncc1Cc1cccnc1	5.36	–
O=C(NCCCCCCSc1ncc(Cc2cccnc2)c(O)n1)c1ccc(Cl)cc1	–	inhibition [3]: 41%
Cc1ccc(Cc2cnc(SCCCCCCOCc3ccc(Cl)cc3)[nH]c2=O)cn1	5.92	–
Oc1nc(SCCCCCCCCc2ccccc2)ncc1Cc1ccccn1	–	inhibition [3]: 38%
O=C(CCCCCCCOc1ncc(Cc2cccnc2)c(=O)[nH]1)c1ccc(Cl)cc1	7.19	–
O=c1[nH]c(SCCCCCCCCc2cccc(Cl)c2)ncc1Cc1cccnc1	6.07	–
O=C(CSc1ncc(Cc2cccnc2)c(O)n1)c1ccccc1	–	inhibition [3]: 0%
Cn1ccc(Cc2cnc(SCCCCCCCC(=O)c3ccc(Cl)cc3)[nH]c2=O)cc1=O	7.14	pKi [4]: 7.39
O=c1[nH]c(SCCCCCCCCc2ccccc2)ncc1Cc1ccncc1	6.20	–
